Data from US4622217A, “I-4-amino-3-iodobenzylguanidine as imaging and therapeutic agent” (The Regents of the University of Michigan, priority 1984, dated 1986).
Each block holds one compound with its values, some of them ahead of it.

Assays:
[1] = test system: adrenergic nerves of the heart; test: Selectivity for the adrenergic nerves of the heart; conditions: in vivo
adrenergic tissues = test: Accumulation in adrenergic tissues; assay type: in vivo; conditions: localizes in adrenergic neurons of the heart and chromaffin granules of the adrenal medulla
[2] = Radio-decomposition on storage in buffer; assay type: physicochemical; conditions: up to 14 days, pH 4.8 sodium acetate buffer (0.005M), 1% (v/v) benzyl alcohol, 4° C., dark
[3] = Biological tissue distribution in rats after intravenous injection; assay type: in vivo, rat (Female Sprague-Dawley); conditions: 90 min, i.v. 25 μCi
Procedure: (§1) Biological tissue distribution studies were performed in rats, dogs, and monkeys injected intravenously with 25 μCi, 100 μCi and 100 μCi, respectively, of I-125 4-amino-3-iodobenzylguanidine in an average volume of 0.2 ml, 2 ml, and 1 ml, respectively. Representative samples of tissues were counted in an autogamma counter with corrections made for radioactive decay, background, and counter efficiency. To normalize for differences in animal weights, tissue concentrations are expressed as percent kilogram dose per gram.

[4] = Biological tissue distribution in dogs after intravenous injection; assay type: in vivo, dog (Female Mongrel); conditions: i.v. 100 μCi
Procedure: as §1

[5] = Biological tissue distribution in monkeys after intravenous injection; assay type: in vivo, monkey; conditions: 3 hours, i.v. 100 μCi
Procedure: as §1

SMILES: N=C(N)NCc1ccc(N)c(I)c1 [radioiodinated compound, radioiodinated 4-amino-3-iodobenzylguanidine]
selectivity for the adrenergic nerves of the heart [1]: high degree of selectivity for the adrenergic nerves of the heart

SMILES: N=C(N)NCc1ccc(N)c(I)c1 [4-amino-3-iodobenzylguanidine]
accumulation in adrenergic tissues (adrenergic tissues): accumulated in adrenergic tissues in a manner similar to norepinephrine and guanethidine

degraded at 336 h [2]: < 4%
SMILES: N=C(N)NCc1ccc(N)c([131I])c1 [I-131-labeled compound, ^131 I-4-Amino-3-Iodobenzylguanidine]

tissue concentration (Mean + S.E.M.) ([3]; Blood): 0.08 ± .01 % Kg Dose/g
tissue concentration (Mean + S.E.M.) ([3]; Left Atrium): 0.55 ± .06 % Kg Dose/g
tissue concentration (Mean + S.E.M.) ([3]; Left Ventricle): 0.46 ± .05 % Kg Dose/g
tissue concentration (Mean + S.E.M.) ([3]; Liver): 0.09 ± .01 % Kg Dose/g
tissue concentration (Mean + S.E.M.) ([3]; Right Atrium): 0.66 ± .05 % Kg Dose/g
tissue concentration (Mean + S.E.M.) ([3]; Right Ventricle): 0.70 ± .02 % Kg Dose/g
tissue concentration (Mean + S.E.M.) ([3]; Spleen): 0.35 ± .01 % Kg Dose/g
tissue concentration (Mean + S.E.M.) ([4]; 30 min, Adrenal Cortex): 0.62 ± 0.16 % kg dose/g
tissue concentration (Mean + S.E.M.) ([4]; 30 min, Adrenal Medulla): 8.8 ± 2.8 % kg dose/g
tissue concentration (Mean + S.E.M.) ([4]; 30 min, Blood): 0.03 % kg dose/g
tissue concentration (Mean + S.E.M.) ([4]; 30 min, Heart (Left Ventricle)): 0.49 ± 0.05 % kg dose/g
tissue concentration (Mean + S.E.M.) ([4]; 30 min, Liver): 0.36 ± 0.02 % kg dose/g
tissue concentration (Mean + S.E.M.) ([4]; 30 min, Lung): 0.88 ± 0.61 % kg dose/g
tissue concentration (Mean + S.E.M.) ([4]; 30 min, Muscle): 0.05 ± 0.02 % kg dose/g
tissue concentration (Mean + S.E.M.) ([4]; 30 min, Thyroid): 1.02 ± 0.06 % kg dose/g
tissue concentration (Mean + S.E.M.) ([4]; 2 hours, Adrenal Cortex): 0.51 ± 0.15 % kg dose/g
tissue concentration (Mean + S.E.M.) ([4]; 2 hours, Adrenal Medulla): 10.4 ± 0.8 % kg dose/g
tissue concentration (Mean + S.E.M.) ([4]; 2 hours, Blood): 0.03 % kg dose/g
tissue concentration (Mean + S.E.M.) ([4]; 2 hours, Heart (Left Ventricle)): 0.52 ± 0.02 % kg dose/g
tissue concentration (Mean + S.E.M.) ([4]; 2 hours, Liver): 0.2 ± 0.02 % kg dose/g
tissue concentration (Mean + S.E.M.) ([4]; 2 hours, Lung): 1.26 ± 0.2 % kg dose/g
tissue concentration (Mean + S.E.M.) ([4]; 2 hours, Muscle): 0.04 ± 0.01 % kg dose/g
tissue concentration (Mean + S.E.M.) ([4]; 2 hours, Thyroid): 0.85 ± 0.11 % kg dose/g
tissue concentration (Mean + S.E.M.) ([4]; 72 hours, Adrenal Cortex): 0.13 ± 0.06 % kg dose/g
tissue concentration (Mean + S.E.M.) ([4]; 72 hours, Adrenal Medulla): 18.3 ± 1.8 % kg dose/g
tissue concentration (Mean + S.E.M.) ([4]; 72 hours, Blood): 0.02 % kg dose/g
tissue concentration (Mean + S.E.M.) ([4]; 72 hours, Heart (Left Ventricle)): 0.06 ± 0.01 % kg dose/g
tissue concentration (Mean + S.E.M.) ([4]; 72 hours, Liver): 0.05 % kg dose/g
tissue concentration (Mean + S.E.M.) ([4]; 72 hours, Lung): 0.09 ± 0.01 % kg dose/g
tissue concentration (Mean + S.E.M.) ([4]; 72 hours, Muscle): 0.01 % kg dose/g
tissue concentration (Mean + S.E.M.) ([4]; 72 hours, Thyroid): 14.6 ± 2.4 % kg dose/g
tissue concentration (Mean + S.E.M.) ([5]; Adrenal Cortex): 0.60 ± .04 % Kg Dose/g
tissue concentration (Mean + S.E.M.) ([5]; Adrenal Modullae): 1.98 ± .14 % Kg Dose/g
tissue concentration (Mean + S.E.M.) ([5]; Blood): 0.03 ± .01 % Kg Dose/g
tissue concentration (Mean + S.E.M.) ([5]; Heart (Left Ventricle)): 0.85 ± .11 % Kg Dose/g
tissue concentration (Mean + S.E.M.) ([5]; Liver): 0.17 ± .04 % Kg Dose/g
tissue concentration (Mean + S.E.M.) ([5]; Lung): 0.99 ± .53 % Kg Dose/g
tissue concentration (Mean + S.E.M.) ([5]; Muscle): 0.03 ± .55 % Kg Dose/g
tissue concentration (Mean + S.E.M.) ([5]; Thyroid): 1.07 ± .55 % Kg Dose/g
SMILES: N=C(N)NCc1ccc(N)c([125I])c1 [I-125 4-amino-3-iodobenzylguanidine]
